#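 How tested: cells in 96-well plates exposed to compound for 48 hours at five concentrations. Here, GI50 denotes the concentration required for 50% inhibition of growth. TGI marks complete inhibition of growth.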
# System: NCI-H522 lung
# Test: NCI-60 cell line screen, 48 h
SMILES,TGI,GI50
COc1cc2ccccc2oc1=O,> 100 µM,
Nc1nc(N)c2nc(CNc3ccc(C(=O)NC(CC(=O)O)C(=O)O)cc3)cnc2n1 (centres undefined),> 100 µM,3.97 µM
O=C1c2cccc(NCCN=Cc3cc([N+](=O)[O-])ccc3O)c2C(=O)c2c(NCCN=Cc3cc([N+](=O)[O-])ccc3O)cccc21,> 100 µM,4.07 µM
CC(=O)OC[C@]12CC[C@@H](C(=O)CBr)[C@@H]1[C@H]1CC[C@@H]3[C@@]4(C)CCCNC(C)(C)[C@@H]4CC[C@@]3(C)[C@]1(C)CC2,4.6 µM,2.06 µM
COc1cc2c3c(n(CCCCN)c(=O)c2cc1OC)-c1cc2c(cc1C3=O)OCO2,9.89 µM,0.259 µM
C=CCC1(O)c2ccccc2C(=O)c2c(NCCN(CC(=O)OCC)CC(=O)OCC)cccc21 (centres undefined),> 100 µM,> 100 µM
COc1cccc(-n2nc(C)c3c(N/N=C(\C)c4ccncc4)ncnc32)c1,> 25 µM,> 25 µM
NC(=O)c1ccccc1Nc1ccc2nnc(-c3ccncc3)n2n1,18 µM,4.46 µM
Cc1ccc(-c2nc(C#N)c(S(=O)(=O)n3nc(C)cc3N)o2)cc1,3.58 µM,1.65 µM
CCn1cnc(C[C@H](NC(=O)[C@@H](NC(=O)Nc2cc(C(F)(F)F)cc(C(F)(F)F)c2)C(C)C)C(=O)OC)c1,3.98 µM,1.78 µM
O=C(Nc1cccc(-n2cc(-c3ccncc3)c(-c3ccc(Cl)c(O)c3)n2)c1)c1ccc(N2CCOCC2)c(C(F)(F)F)c1,44 µM,2.31 µM
COc1cccc2c1ccc1nc3cccc(C(=O)N[C@H](C)CN(C)C)c3nc12,0.279 µM,0.0579 µM
NC(=O)c1ccc(I)c(N=O)c1,55.3 µM,21.4 µM
COc1ccc2c(=O)cc(-c3ccncc3)oc2c1OC,> 100 µM,
COC(=O)c1ccccc1OCc1cc(=O)oc2ccc(C)cc12,48.6 µM,
COc1ccc(-c2nc(-c3ccccc3)c(-c3ccccc3)[nH]2)cc1OC1CCCC1,> 100 µM,6.11 µM
COC(=O)[C@@]12OC[C@]34[C@H]([C@@H](O)[C@@H]1O)[C@@]1(C)[C@H](O)C(=O)C=C(C)[C@@H]1C[C@H]3OC(=O)C(OC(C)=O)[C@@H]24 (some centres undefined),0.041 µM,< 0.0111 µM

# System: HT29 colon
# Test: NCI-60 cell line screen, 48 h
SMILES,TGI,GI50
COc1cc2ccccc2oc1=O,> 100 µM,
Nc1nc(N)c2nc(CNc3ccc(C(=O)NC(CC(=O)O)C(=O)O)cc3)cnc2n1 (centres undefined),> 100 µM,0.542 µM
O=C1c2cccc(NCCN=Cc3cc([N+](=O)[O-])ccc3O)c2C(=O)c2c(NCCN=Cc3cc([N+](=O)[O-])ccc3O)cccc21,> 100 µM,1.26 µM
CC(=O)OC[C@]12CC[C@@H](C(=O)CBr)[C@@H]1[C@H]1CC[C@@H]3[C@@]4(C)CCCNC(C)(C)[C@@H]4CC[C@@]3(C)[C@]1(C)CC2,10.5 µM,3.07 µM
COc1cc2c3c(n(CCCCN)c(=O)c2cc1OC)-c1cc2c(cc1C3=O)OCO2,25 µM,0.586 µM
C=CCC1(O)c2ccccc2C(=O)c2c(NCCN(CC(=O)OCC)CC(=O)OCC)cccc21 (centres undefined),> 100 µM,> 100 µM
COc1cccc(-n2nc(C)c3c(N/N=C(\C)c4ccncc4)ncnc32)c1,> 25 µM,> 25 µM
NC(=O)c1ccccc1Nc1ccc2nnc(-c3ccncc3)n2n1,19.2 µM,6.39 µM
Cc1ccc(-c2nc(C#N)c(S(=O)(=O)n3nc(C)cc3N)o2)cc1,5.45 µM,2.37 µM
CCn1cnc(C[C@H](NC(=O)[C@@H](NC(=O)Nc2cc(C(F)(F)F)cc(C(F)(F)F)c2)C(C)C)C(=O)OC)c1,4.1 µM,2.02 µM
O=C(Nc1cccc(-n2cc(-c3ccncc3)c(-c3ccc(Cl)c(O)c3)n2)c1)c1ccc(N2CCOCC2)c(C(F)(F)F)c1,> 50 µM,14.4 µM
COc1cccc2c1ccc1nc3cccc(C(=O)N[C@H](C)CN(C)C)c3nc12,0.365 µM,0.0427 µM
NC(=O)c1ccc(I)c(N=O)c1,39.5 µM,20.6 µM
COc1ccc2c(=O)cc(-c3ccncc3)oc2c1OC,> 100 µM,
COC(=O)c1ccccc1OCc1cc(=O)oc2ccc(C)cc12,> 100 µM,
COc1ccc(-c2nc(-c3ccccc3)c(-c3ccccc3)[nH]2)cc1OC1CCCC1,> 100 µM,30.8 µM
COC(=O)[C@@]12OC[C@]34[C@H]([C@@H](O)[C@@H]1O)[C@@]1(C)[C@H](O)C(=O)C=C(C)[C@@H]1C[C@H]3OC(=O)C(OC(C)=O)[C@@H]24 (some centres undefined),0.136 µM,0.0303 µM

# System: DU-145 prostate
# Test: NCI-60 cell line screen, 48 h
SMILES,TGI,GI50
COc1cc2ccccc2oc1=O,> 100 µM,
Nc1nc(N)c2nc(CNc3ccc(C(=O)NC(CC(=O)O)C(=O)O)cc3)cnc2n1 (centres undefined),> 100 µM,0.682 µM
O=C1c2cccc(NCCN=Cc3cc([N+](=O)[O-])ccc3O)c2C(=O)c2c(NCCN=Cc3cc([N+](=O)[O-])ccc3O)cccc21,58.1 µM,3.94 µM
CC(=O)OC[C@]12CC[C@@H](C(=O)CBr)[C@@H]1[C@H]1CC[C@@H]3[C@@]4(C)CCCNC(C)(C)[C@@H]4CC[C@@]3(C)[C@]1(C)CC2,14.2 µM,4.1 µM
COc1cc2c3c(n(CCCCN)c(=O)c2cc1OC)-c1cc2c(cc1C3=O)OCO2,1.03 µM,0.147 µM
C=CCC1(O)c2ccccc2C(=O)c2c(NCCN(CC(=O)OCC)CC(=O)OCC)cccc21 (centres undefined),> 100 µM,> 100 µM
COc1cccc(-n2nc(C)c3c(N/N=C(\C)c4ccncc4)ncnc32)c1,> 25 µM,> 25 µM
NC(=O)c1ccccc1Nc1ccc2nnc(-c3ccncc3)n2n1,27.3 µM,14.3 µM
Cc1ccc(-c2nc(C#N)c(S(=O)(=O)n3nc(C)cc3N)o2)cc1,20.2 µM,7.8 µM
CCn1cnc(C[C@H](NC(=O)[C@@H](NC(=O)Nc2cc(C(F)(F)F)cc(C(F)(F)F)c2)C(C)C)C(=O)OC)c1,4.84 µM,2.26 µM
O=C(Nc1cccc(-n2cc(-c3ccncc3)c(-c3ccc(Cl)c(O)c3)n2)c1)c1ccc(N2CCOCC2)c(C(F)(F)F)c1,> 50 µM,4.2 µM
COc1cccc2c1ccc1nc3cccc(C(=O)N[C@H](C)CN(C)C)c3nc12,3.71 µM,0.0735 µM
NC(=O)c1ccc(I)c(N=O)c1,> 100 µM,43.7 µM
COc1ccc2c(=O)cc(-c3ccncc3)oc2c1OC,> 100 µM,
COC(=O)c1ccccc1OCc1cc(=O)oc2ccc(C)cc12,> 100 µM,
COc1ccc(-c2nc(-c3ccccc3)c(-c3ccccc3)[nH]2)cc1OC1CCCC1,> 100 µM,> 100 µM
COC(=O)[C@@]12OC[C@]34[C@H]([C@@H](O)[C@@H]1O)[C@@]1(C)[C@H](O)C(=O)C=C(C)[C@@H]1C[C@H]3OC(=O)C(OC(C)=O)[C@@H]24 (some centres undefined),0.206 µM,0.0445 µM

# System: SR leukemia
# Test: NCI-60 cell line screen, 48 h
SMILES,TGI,GI50
COc1cc2ccccc2oc1=O,> 100 µM,
Nc1nc(N)c2nc(CNc3ccc(C(=O)NC(CC(=O)O)C(=O)O)cc3)cnc2n1 (centres undefined),> 100 µM,0.267 µM
O=C1c2cccc(NCCN=Cc3cc([N+](=O)[O-])ccc3O)c2C(=O)c2c(NCCN=Cc3cc([N+](=O)[O-])ccc3O)cccc21,> 100 µM,1.49 µM
CC(=O)OC[C@]12CC[C@@H](C(=O)CBr)[C@@H]1[C@H]1CC[C@@H]3[C@@]4(C)CCCNC(C)(C)[C@@H]4CC[C@@]3(C)[C@]1(C)CC2,5.71 µM,2 µM
COc1cc2c3c(n(CCCCN)c(=O)c2cc1OC)-c1cc2c(cc1C3=O)OCO2,0.417 µM,0.115 µM
C=CCC1(O)c2ccccc2C(=O)c2c(NCCN(CC(=O)OCC)CC(=O)OCC)cccc21 (centres undefined),> 100 µM,46.5 µM
COc1cccc(-n2nc(C)c3c(N/N=C(\C)c4ccncc4)ncnc32)c1,> 25 µM,> 25 µM
NC(=O)c1ccccc1Nc1ccc2nnc(-c3ccncc3)n2n1,14.6 µM,2.83 µM
Cc1ccc(-c2nc(C#N)c(S(=O)(=O)n3nc(C)cc3N)o2)cc1,6.91 µM,2.06 µM
CCn1cnc(C[C@H](NC(=O)[C@@H](NC(=O)Nc2cc(C(F)(F)F)cc(C(F)(F)F)c2)C(C)C)C(=O)OC)c1,7.86 µM,2.38 µM
O=C(Nc1cccc(-n2cc(-c3ccncc3)c(-c3ccc(Cl)c(O)c3)n2)c1)c1ccc(N2CCOCC2)c(C(F)(F)F)c1,> 50 µM,1.63 µM
COc1cccc2c1ccc1nc3cccc(C(=O)N[C@H](C)CN(C)C)c3nc12,,0.0315 µM
NC(=O)c1ccc(I)c(N=O)c1,> 100 µM,40.6 µM
COc1ccc2c(=O)cc(-c3ccncc3)oc2c1OC,39.4 µM,
COC(=O)c1ccccc1OCc1cc(=O)oc2ccc(C)cc12,> 100 µM,
COc1ccc(-c2nc(-c3ccccc3)c(-c3ccccc3)[nH]2)cc1OC1CCCC1,> 100 µM,15 µM
COC(=O)[C@@]12OC[C@]34[C@H]([C@@H](O)[C@@H]1O)[C@@]1(C)[C@H](O)C(=O)C=C(C)[C@@H]1C[C@H]3OC(=O)C(OC(C)=O)[C@@H]24 (some centres undefined),0.0425 µM,0.0195 µM

# System: HCC-2998 colon
# Test: NCI-60 cell line screen, 48 h
SMILES,TGI,GI50
COc1cc2ccccc2oc1=O,> 100 µM,
Nc1nc(N)c2nc(CNc3ccc(C(=O)NC(CC(=O)O)C(=O)O)cc3)cnc2n1 (centres undefined),> 100 µM,1.07 µM
O=C1c2cccc(NCCN=Cc3cc([N+](=O)[O-])ccc3O)c2C(=O)c2c(NCCN=Cc3cc([N+](=O)[O-])ccc3O)cccc21,> 100 µM,5.87 µM
CC(=O)OC[C@]12CC[C@@H](C(=O)CBr)[C@@H]1[C@H]1CC[C@@H]3[C@@]4(C)CCCNC(C)(C)[C@@H]4CC[C@@]3(C)[C@]1(C)CC2,26.1 µM,11.5 µM
COc1cc2c3c(n(CCCCN)c(=O)c2cc1OC)-c1cc2c(cc1C3=O)OCO2,2.26 µM,0.659 µM
C=CCC1(O)c2ccccc2C(=O)c2c(NCCN(CC(=O)OCC)CC(=O)OCC)cccc21 (centres undefined),> 100 µM,> 100 µM
COc1cccc(-n2nc(C)c3c(N/N=C(\C)c4ccncc4)ncnc32)c1,> 25 µM,> 25 µM
NC(=O)c1ccccc1Nc1ccc2nnc(-c3ccncc3)n2n1,34.5 µM,16.6 µM
Cc1ccc(-c2nc(C#N)c(S(=O)(=O)n3nc(C)cc3N)o2)cc1,38 µM,19.5 µM
CCn1cnc(C[C@H](NC(=O)[C@@H](NC(=O)Nc2cc(C(F)(F)F)cc(C(F)(F)F)c2)C(C)C)C(=O)OC)c1,5.32 µM,2.27 µM
O=C(Nc1cccc(-n2cc(-c3ccncc3)c(-c3ccc(Cl)c(O)c3)n2)c1)c1ccc(N2CCOCC2)c(C(F)(F)F)c1,> 50 µM,5.66 µM
COc1cccc2c1ccc1nc3cccc(C(=O)N[C@H](C)CN(C)C)c3nc12,0.298 µM,0.108 µM
NC(=O)c1ccc(I)c(N=O)c1,> 100 µM,67.5 µM
COc1ccc2c(=O)cc(-c3ccncc3)oc2c1OC,48.4 µM,
COC(=O)c1ccccc1OCc1cc(=O)oc2ccc(C)cc12,> 100 µM,
COc1ccc(-c2nc(-c3ccccc3)c(-c3ccccc3)[nH]2)cc1OC1CCCC1,> 100 µM,> 100 µM
COC(=O)[C@@]12OC[C@]34[C@H]([C@@H](O)[C@@H]1O)[C@@]1(C)[C@H](O)C(=O)C=C(C)[C@@H]1C[C@H]3OC(=O)C(OC(C)=O)[C@@H]24 (some centres undefined),0.111 µM,0.0168 µM

# — PubChem BioAssay (NCI)
